Inhibition data for one compound are collected here from ChEMBL document CHEMBL5303765, “Data for DCP probe BAY-7081” (2023).

Assay [1] addresses Polyunsaturated fatty acid lipoxygenase ALOX15 (Homo sapiens) (UniProt P16050). Briefly: Lipoxygenase 15-LO Eurofins Panlabs panel. As to conditions: Compound concentration 10.0 uM.
Assay [2] addresses Adenosine receptor A2a (Homo sapiens) (UniProt P29274). Briefly: Adenosine A2A Eurofins Panlabs panel. As to conditions: Compound concentration 10.0 uM.
Assay [3] deals with Beta-3 adrenergic receptor (Homo sapiens) (UniProt P13945). Briefly: Adrenergic beta3 Eurofins Panlabs panel. To be noted: concentration not given here.
Chain of Beta-3 adrenergic receptor (Homo sapiens) (P13945 whole entry, looked up): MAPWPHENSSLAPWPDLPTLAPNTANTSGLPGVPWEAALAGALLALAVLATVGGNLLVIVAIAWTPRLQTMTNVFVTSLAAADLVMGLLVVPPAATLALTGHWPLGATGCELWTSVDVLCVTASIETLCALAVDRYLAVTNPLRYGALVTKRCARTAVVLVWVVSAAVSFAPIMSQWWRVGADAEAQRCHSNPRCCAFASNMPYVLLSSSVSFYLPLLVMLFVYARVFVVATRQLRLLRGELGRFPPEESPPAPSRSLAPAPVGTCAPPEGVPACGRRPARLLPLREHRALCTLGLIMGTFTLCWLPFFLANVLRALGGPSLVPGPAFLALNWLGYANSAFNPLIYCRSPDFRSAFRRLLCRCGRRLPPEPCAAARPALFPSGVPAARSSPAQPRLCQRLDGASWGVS
Assay [4] addresses Growth hormone secretagogue receptor type 1 (Homo sapiens) (UniProt Q92847). Nature of the assay: Growth Hormone Secretagogue (GHS, Ghrelin) Eurofins Panlabs panel. To be noted: Compound concentration 10.0 uM.
Assay [5] addresses Delta-type opioid receptor (Homo sapiens) (UniProt P41143). Nature of the assay: Opiate delta1 (OP1, DOP) Eurofins Panlabs panel. To be noted: Compound concentration 10.0 uM.
The target of assay [6] is Prostaglandin F2-alpha receptor (Homo sapiens) (UniProt P43088). Briefly: Prostanoid FP Eurofins Panlabs panel. As to conditions: Compound concentration 10.0 uM.
Chain of Prostaglandin F2-alpha receptor (Homo sapiens) (P43088 whole entry): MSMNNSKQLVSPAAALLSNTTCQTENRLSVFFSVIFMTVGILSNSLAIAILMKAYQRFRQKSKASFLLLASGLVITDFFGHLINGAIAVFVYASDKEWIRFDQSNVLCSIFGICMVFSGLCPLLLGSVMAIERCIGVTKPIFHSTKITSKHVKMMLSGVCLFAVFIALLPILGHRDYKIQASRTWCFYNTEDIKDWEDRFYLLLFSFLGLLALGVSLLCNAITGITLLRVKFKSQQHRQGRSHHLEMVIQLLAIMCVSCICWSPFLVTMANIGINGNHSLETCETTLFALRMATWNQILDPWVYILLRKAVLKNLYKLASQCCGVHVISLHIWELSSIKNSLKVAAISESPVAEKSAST
Assay [7] addresses Alpha-1B adrenergic receptor (Homo sapiens) (UniProt P35368). As to conditions: Compound concentration 10.0 uM.

Chain of Alpha-1B adrenergic receptor (Homo sapiens) (P35368 whole entry): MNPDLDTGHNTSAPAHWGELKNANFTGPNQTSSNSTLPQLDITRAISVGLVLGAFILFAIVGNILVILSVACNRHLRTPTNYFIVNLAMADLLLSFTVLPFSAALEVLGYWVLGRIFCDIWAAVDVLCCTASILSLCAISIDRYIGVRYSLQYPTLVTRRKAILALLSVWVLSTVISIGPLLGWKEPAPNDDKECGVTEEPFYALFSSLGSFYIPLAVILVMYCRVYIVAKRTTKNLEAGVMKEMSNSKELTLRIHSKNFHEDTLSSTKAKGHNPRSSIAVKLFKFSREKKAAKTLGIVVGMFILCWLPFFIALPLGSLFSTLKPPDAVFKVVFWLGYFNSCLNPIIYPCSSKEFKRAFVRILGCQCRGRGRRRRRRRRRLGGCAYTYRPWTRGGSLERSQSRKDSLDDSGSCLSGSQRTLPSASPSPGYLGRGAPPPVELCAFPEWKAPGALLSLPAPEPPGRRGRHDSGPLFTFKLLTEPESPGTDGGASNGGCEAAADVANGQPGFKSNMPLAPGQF
Chain of Polyunsaturated fatty acid lipoxygenase ALOX15 (Homo sapiens) (P16050 whole entry): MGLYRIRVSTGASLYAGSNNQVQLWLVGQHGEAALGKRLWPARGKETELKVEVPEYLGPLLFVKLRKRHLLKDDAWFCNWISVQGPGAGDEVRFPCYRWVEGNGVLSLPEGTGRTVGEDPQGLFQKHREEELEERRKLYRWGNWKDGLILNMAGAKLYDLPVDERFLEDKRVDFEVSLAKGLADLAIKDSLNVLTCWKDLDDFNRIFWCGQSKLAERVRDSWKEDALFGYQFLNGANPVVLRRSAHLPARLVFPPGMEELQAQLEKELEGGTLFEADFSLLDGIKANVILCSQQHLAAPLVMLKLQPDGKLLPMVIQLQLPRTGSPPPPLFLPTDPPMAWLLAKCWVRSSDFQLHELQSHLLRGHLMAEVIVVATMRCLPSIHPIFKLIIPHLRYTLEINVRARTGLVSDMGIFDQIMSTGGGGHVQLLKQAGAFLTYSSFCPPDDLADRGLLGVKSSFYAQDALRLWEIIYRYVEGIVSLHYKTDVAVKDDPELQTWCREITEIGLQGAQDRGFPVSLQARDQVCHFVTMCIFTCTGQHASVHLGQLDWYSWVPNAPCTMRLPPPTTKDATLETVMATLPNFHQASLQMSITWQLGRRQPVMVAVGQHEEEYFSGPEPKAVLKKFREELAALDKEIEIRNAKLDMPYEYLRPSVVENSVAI
Chain of Growth hormone secretagogue receptor type 1 (Homo sapiens) (Q92847 whole entry): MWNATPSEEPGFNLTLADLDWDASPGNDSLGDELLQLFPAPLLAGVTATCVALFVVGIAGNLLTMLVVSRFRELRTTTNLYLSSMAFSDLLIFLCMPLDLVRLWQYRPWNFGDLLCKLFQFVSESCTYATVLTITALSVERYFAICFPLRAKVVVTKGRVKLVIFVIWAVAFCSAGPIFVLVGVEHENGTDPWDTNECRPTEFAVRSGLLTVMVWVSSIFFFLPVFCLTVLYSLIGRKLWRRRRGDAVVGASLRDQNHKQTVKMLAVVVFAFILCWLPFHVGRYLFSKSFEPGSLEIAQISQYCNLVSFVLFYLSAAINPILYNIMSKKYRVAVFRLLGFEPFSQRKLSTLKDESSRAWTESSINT
Chain of Adenosine receptor A2a (Homo sapiens) (P29274 whole entry): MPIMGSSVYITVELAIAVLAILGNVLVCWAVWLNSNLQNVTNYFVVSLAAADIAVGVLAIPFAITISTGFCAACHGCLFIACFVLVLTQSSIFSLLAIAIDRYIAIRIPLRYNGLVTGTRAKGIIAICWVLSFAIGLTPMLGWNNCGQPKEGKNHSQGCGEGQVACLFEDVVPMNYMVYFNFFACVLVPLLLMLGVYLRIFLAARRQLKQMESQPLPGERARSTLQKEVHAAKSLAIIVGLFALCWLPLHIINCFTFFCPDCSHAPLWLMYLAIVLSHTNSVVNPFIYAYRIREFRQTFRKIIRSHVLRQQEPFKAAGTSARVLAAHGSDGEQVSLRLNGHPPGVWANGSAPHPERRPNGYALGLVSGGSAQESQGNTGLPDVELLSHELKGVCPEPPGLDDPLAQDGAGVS
Chain of Delta-type opioid receptor (Homo sapiens) (P41143 whole entry): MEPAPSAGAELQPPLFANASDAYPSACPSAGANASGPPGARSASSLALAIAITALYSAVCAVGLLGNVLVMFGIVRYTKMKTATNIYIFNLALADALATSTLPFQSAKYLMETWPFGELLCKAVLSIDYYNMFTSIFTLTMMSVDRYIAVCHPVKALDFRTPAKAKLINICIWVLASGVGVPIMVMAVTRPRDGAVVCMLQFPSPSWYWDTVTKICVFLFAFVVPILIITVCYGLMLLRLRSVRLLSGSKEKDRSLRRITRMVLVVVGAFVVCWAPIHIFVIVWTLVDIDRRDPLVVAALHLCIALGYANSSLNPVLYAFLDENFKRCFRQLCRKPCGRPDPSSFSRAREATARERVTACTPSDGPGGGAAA

As to `CCC[C@H]1CNCc2c1[nH]c(=O)c(C#N)c2N1CCC2(CC1)CC2`, the inhibition (commonly the change of the read-out against control, counted positive when it falls) was -6% in assay [1]; 2% in assay [2]; 0% in assay [3]; 9% in assay [4]; 5% in assay [5]; 13% in assay [6]. The inhibition in assay [7] was 4.43%.
